Source: patent US20250179032A1, “HETEROCYCLIC INHIBITORS OF GLUT9 FOR TREATMENT OF DISEASE” (HORIZON THERAPEUTICS IRELAND DAC, priority 2022, published 2025)

Biological target: T1, H. sapiens SLC2A9 variant 2 (GLUT9B) (Homo sapiens, UniProt Q9NRM0)
T1 sequence (Q9NRM0 1-511 isoform Q9NRM0-2): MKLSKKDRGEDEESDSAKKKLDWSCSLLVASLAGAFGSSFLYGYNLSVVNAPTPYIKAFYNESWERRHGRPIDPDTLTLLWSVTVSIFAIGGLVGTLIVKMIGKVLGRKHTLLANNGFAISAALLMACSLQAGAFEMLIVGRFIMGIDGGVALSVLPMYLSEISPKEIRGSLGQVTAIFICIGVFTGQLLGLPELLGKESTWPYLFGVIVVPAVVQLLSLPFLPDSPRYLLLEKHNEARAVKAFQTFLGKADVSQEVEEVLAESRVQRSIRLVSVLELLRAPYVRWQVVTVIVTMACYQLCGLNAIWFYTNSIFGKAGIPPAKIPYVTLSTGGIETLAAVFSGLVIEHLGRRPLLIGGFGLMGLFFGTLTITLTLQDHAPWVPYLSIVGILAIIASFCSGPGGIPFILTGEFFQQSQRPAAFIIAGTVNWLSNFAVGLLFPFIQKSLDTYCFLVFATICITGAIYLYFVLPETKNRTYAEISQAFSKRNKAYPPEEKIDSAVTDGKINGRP
Experiment: GLUT9 functional assay: uric acid uptake in HEK293T cells, allantoin formation by MS/MS as proxy of GLUT9B inhibition
Format: cell-based
Details: 15 minute assay; HEK293T cells stably expressing GLUT9B and transiently A. oryzae uricase; uric acid 0.3 mM, 37° C.; read-out: 15 min IC50
Method in brief: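 HEK293T cells stably expressing human GLUT9B and transiently expressing A. oryzae uricase, exposed across a 12-point curve to 0.3 mM uric acid (Km) in sodium gluconate buffer pH 7.4 for 15 or 60 min at 37° C. Allantoin in lysates quantified by RapidFire MS/MS (positive ion) against a matrix-matched standard curve as proxy for uptake.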

Row | IC50 | Compound
1 | 500 to 2000 nM | COCCOCCOc1ccc(-c2ncc(CCCC(F)(F)F)nc2N2CCC(C(=O)O)CC2)cc1 [Compound 117, 1-(3-(4-(2-(2-methoxyethoxy)ethoxy)phenyl)-6-(4,4,4-trifluorobutyl)pyrazin-2-yl)piperidine-4-carboxylic acid]
2 | 500 to 2000 nM | COCCOCCCc1cnc(-c2cc(F)c3occc3c2)c(N2CCC(C(=O)O)CC2)n1 [Compound 118, 1-(3-(7-fluorobenzofuran-5-yl)-6-(3-(2-methoxyethoxy)propyl)pyrazin-2-yl)piperidine-4-carboxylic acid]
3 | < 500 nM | O=C(O)C1CCN(c2nc(CCC(F)(F)F)cnc2-c2ccc3c(c2)CCO3)CC1 [Compound 119, 1-(3-(2,3-dihydrobenzofuran-5-yl)-6-(3,3,3-trifluoropropyl)pyrazin-2-yl)piperidine-4-carboxylic acid]
4 | < 500 nM | O=C(O)C1CCN(c2nc(CCC(F)(F)F)cnc2-c2ccc3c(c2)OCO3)CC1 [Compound 120, 1-(3-(benzo[d][1,3]dioxol-5-yl)-6-(3,3,3-trifluoropropyl)pyrazin-2-yl)piperidine-4-carboxylic acid]
5 | < 500 nM | O=C(O)C1CCN(c2nc(CCC(F)(F)F)cnc2-c2ccc3occc3c2)CC1 [Compound 121, 1-(3-(benzofuran-5-yl)-6-(3,3,3-trifluoropropyl)pyrazin-2-yl)piperidin-4-carboxylic acid]
6 | 500 to 2000 nM | O=C(O)C1CCN(c2nc(CCC(F)(F)F)cnc2-c2ccc3c(c2)OCCO3)CC1 [Compound 122, 1-(3-(2,3-dihyrobenzo[b][1,4]dioxin-6-yl)-6-(3,3,3-trifluoropropyl)pyrazin-2-yl)piperidine-4-carboxylic acid]
7 | < 500 nM | O=C(O)C1CCN(c2nc(CCCC(F)(F)F)cnc2-c2ccc3occc3c2)CC1 [Compound 123, 1-(3-(benzofuran-5-yl)-6-(4,4,4-trifluorobutyl)pyrazin-2-yl)piperidine-4-carboxylic acid]
8 | < 500 nM | O=C(O)C1CCN(c2nc(CCC(F)(F)C(F)(F)F)cnc2-c2ccc3occc3c2)CC1 [Compound 124, 1-(3-(benzofuran-5-yl)-6-(3,3,4,4,4-pentafluorobutyl)pyrazin-2-yl)piperidine-4-carboxylic acid]
9 | 500 to 2000 nM | COCCOc1ccc(-c2ncc(CCC(F)(F)C(F)(F)F)nc2N2CCC(C(=O)O)CC2)cc1 [Compound 125, 1-(3-(4-(2-methoxyethoxy)phenyl)-6-(3,3,4,4,4-pentafluorobutyl)pyrazin-2-yl)piperidine-4-carboxylic acid]
10 | < 500 nM | O=C(O)C1CCN(c2nc(CCC(F)(F)C(F)(F)F)cnc2-c2ccc3c(c2)OCO3)CC1 [Compound 126, 1-(3-(benzo[d][1,3]dioxol-5-yl)-6-(3,3,4,4,4-pentafluorobutyl)pyrazin-2-yl)piperidine-4-carboxylic acid]
11 | 500 to 2000 nM | O=C(O)C1CCN(c2nc(CC(C(F)(F)F)C(F)(F)F)cnc2-c2ccc3c(c2)OCO3)CC1 [Compound 127, 1-(3-(benzo[d][1,3]dioxol-5-yl)-6-(3,3,3-trifluoro-2-(trifluoromethyl)propyl)pyrazin-2-yl)piperidine-4-carboxylic acid]
12 | < 500 nM | O=C(O)C1CCN(c2nc(CCCC(F)(F)F)cnc2-c2cc(F)c3occc3c2)CC1 [Compound 129, 1-(3-(7-fluorobenzofuran-5-yl)-6-(4,4,4-trifluorobutyl)pyrazin-2-yl)piperidine-4-carboxylic acid]
13 | < 500 nM | O=C(O)C1CCN(c2nc(CCCCC(F)(F)F)cnc2-c2ccc3occc3c2)CC1 [Compound 130, 1-(3-(benzofuran-5-yl)-6-(5,5,5-Trifluoropentyl)Pyrazin-2-yl)Piperidine-4-carboxylic acid]
14 | < 500 nM | O=C(O)C1CCN(c2nc(CCCCC(F)(F)F)cnc2-c2ccc3c(c2)CCO3)CC1 [Compound 131, 1-(3-(2,3-dihydrobenzofuran-5-yl)-6-(5,5,5-trifluoropentyl)pyrazin-2-yl)piperidine-4-carboxylic acid]
15 | < 500 nM | O=C(O)C1CCN(c2nc(CCCCC(F)(F)F)cnc2-c2ccc3c(c2)OCO3)CC1 [Compound 132, 1-(3-(benzo[d][1,3]dioxol-5-yl)-6-(5,5,5-trifluoropentyl)pyrazin-2-yl)piperidine-4-carboxylic acid]
16 | < 500 nM | COCCOc1ccc(-c2ncc(CCCCC(F)(F)F)nc2N2CCC(C(=O)O)CC2)cc1 [Compound 133, 1-(3-(4-(2-methoxyethoxy)phenyl)-6-(5,5,5-trifluoropentyl)pyrazin-2-yl)piperidine-4-carboxylic acid]
17 | < 500 nM | CC(F)(F)CCc1cnc(-c2ccc3occc3c2)c(N2CCC(C(=O)O)CC2)n1 [Compound 134, 1-(3-(benzofuran-5-yl)-6-(3,3-difluorobutyl)pyrazin-2-yl)piperidine-4-carboxylic acid]

Row | IC50 | Compound
18 | 500 to 2000 nM | CC(F)(F)CCc1cnc(-c2ccc3c(c2)CCO3)c(N2CCC(C(=O)O)CC2)n1 [Compound 135, 1-(6-(3,3-difluorobutyl)-3-(2,3-dihydrobenzofuran-5-yl)pyrazin-2-yl)piperidine-4-carboxylic acid]
19 | < 500 nM | CC(F)(F)CCc1cnc(-c2ccc3c(c2)OCO3)c(N2CCC(C(=O)O)CC2)n1 [Compound 136]
20 | 500 to 2000 nM | COCCOc1ccc(-c2ncc(CCC(C)(F)F)nc2N2CCC(C(=O)O)CC2)cc1 [Compound 137, 1-(6-(3,3-difluorobutyl)-3-(4-(2-methoxyethoxy)phenyl)pyrazin-2-yl)piperidine-4-carboxylic acid]
21 | < 500 nM | COCCCCc1cnc(-c2ccc3occc3c2)c(N2CCC(C(=O)O)CC2)n1 [Compound 138, 1-(3-(benzofuran-5-yl)-6-(4-methoxybutyl)pyrazin-2-yl)piperidine-4-carboxylic acid]
22 | < 500 nM | COCCCCc1cnc(-c2ccc3c(c2)CCO3)c(N2CCC(C(=O)O)CC2)n1 [Compound 139, 1-(3-(2,3-dihydrobenzofuran-5-yl)-6-(4-methoxybutyl)pyrazin-2-yl)piperidine-4-carboxylic acid]
23 | < 500 nM | COCCCCc1cnc(-c2ccc3c(c2)OCO3)c(N2CCC(C(=O)O)CC2)n1 [Compound 140, 1-(3-(benzo[d][1,3]dioxol-5-yl)-6-(4-methoxybutyl)pyrazin-2-yl)piperidine-4-carboxylic acid]
24 | < 500 nM | COCCCCc1cnc(-c2ccc(OCCOC)cc2)c(N2CCC(C(=O)O)CC2)n1 [Compound 141, 1-(6-(4-methoxybutyl)-3-(4-(2-methoxyethoxy)phenyl)pyrazin-2-yl)piperidine-4-carboxylic acid]
25 | < 500 nM | O=C(O)C1CCN(c2nc(CCCC(F)F)cnc2-c2ccc3occc3c2)CC1 [Compound 142, 1-(3-(benzofuran-5-yl)-6-(4,4-difluorobutyl)pyrazin-2-yl)piperidine-4-carboxylic acid]
26 | < 500 nM | O=C(O)C1CCN(c2nc(CCCC(F)F)cnc2-c2ccc3c(c2)CCO3)CC1 [Compound 143, 1-(6-(4,4-difluorobutyl)-3-(2,3-dihydrobenzofuran-5-yl)pyrazin-2-yl)piperidine-4-carboxylic acid]
27 | < 500 nM | O=C(O)C1CCN(c2nc(CCCC(F)F)cnc2-c2ccc3c(c2)OCO3)CC1 [Compound 144, 1-(3-(benzo[d][1,3]dioxol-5-yl)-6-(4,4-difluorobutyl)pyrazin-2-yl)piperidine-4-carboxylic acid]
28 | < 500 nM | COCCOc1ccc(-c2ncc(CCCC(F)F)nc2N2CCC(C(=O)O)CC2)cc1 [Compound 145, 1-(6-(4,4-difluorobutyl)-3-(4-(2-methoxyethoxy)phenyl)pyrazin-2-yl)piperidine-4-carboxylic acid]
29 | < 500 nM | O=c1[nH]c(C2CCN(c3nc(CCC(F)(F)F)cnc3-c3cc(F)c4occc4c3)CC2)no1 [Compound 146, 3-(1-(3-(7-fluorobenzofuran-5-yl)-6-(3,3,3-trifluoropropyl)pyrazin-2-yl)piperidin-4-yl)-1,2,4-oxadiazol-5(4H)-one]
30 | < 500 nM | CCCCCc1cnc(-c2cc(F)c3occc3c2)c(N2CCC(C(=O)O)CC2)n1 [Compound 147, 1-(3-(7-fluorobenzofuran-5-yl)-6-pentylpyrazin-2-yl)piperidine-4-carboxylic acid]
31 | > 2000 nM | CCC(F)(F)Cc1cnc(-c2ccc(OCCOC)cc2)c(N2CCC(C(=O)O)CC2)n1 [Compound 148, 1-(6-(2,2-difluorobutyl)-3-(4-(2-methoxyethoxy)phenyl)pyrazin-2-yl)piperidine-4-carboxylic acid]
32 | < 500 nM | CCC(F)(F)Cc1cnc(-c2ccc3occc3c2)c(N2CCC(C(=O)O)CC2)n1 [Compound 149, 1-(3-(benzofuran-5-yl)-6-(2,2-difluorobutyl)pyrazin-2-yl)piperidine-4-carboxylic acid]
33 | 500 to 2000 nM | CCC(F)(F)Cc1cnc(-c2ccc(OCC3CC3)cc2)c(N2CCC(C(=O)O)CC2)n1 [Compound 150, 1-(3-(4-(cyclopropylmethoxy)phenyl)-6-(2,2-difluorobutyl)pyrazin-2-yl)piperidine-4-carboxylic acid]

Same assay, conditions: 60 minute assay; HEK293T cells stably expressing GLUT9B and transiently A. oryzae uricase; uric acid 0.3 mM, 37° C.; read-out: 60 min IC50

Row | IC50 | Compound
34 | < 500 nM | COCCCCc1cnc(-c2ccc3occc3c2)c(N2CCC(C(=O)O)CC2)n1 [Compound 138, 1-(3-(benzofuran-5-yl)-6-(4-methoxybutyl)pyrazin-2-yl)piperidine-4-carboxylic acid]
35 | < 500 nM | O=C(O)C1CCN(c2nc(CCCC(F)F)cnc2-c2ccc3occc3c2)CC1 [Compound 142, 1-(3-(benzofuran-5-yl)-6-(4,4-difluorobutyl)pyrazin-2-yl)piperidine-4-carboxylic acid]
36 | > 2000 nM | CCC(F)(F)Cc1cnc(-c2ccc(OCC3CC3)cc2)c(N2CCC(C(=O)O)CC2)n1 [Compound 150, 1-(3-(4-(cyclopropylmethoxy)phenyl)-6-(2,2-difluorobutyl)pyrazin-2-yl)piperidine-4-carboxylic acid]
